One assay deals with T1, Atg7 (Homo sapiens, UniProt O95352).
T1 sequence (O95352 1-703): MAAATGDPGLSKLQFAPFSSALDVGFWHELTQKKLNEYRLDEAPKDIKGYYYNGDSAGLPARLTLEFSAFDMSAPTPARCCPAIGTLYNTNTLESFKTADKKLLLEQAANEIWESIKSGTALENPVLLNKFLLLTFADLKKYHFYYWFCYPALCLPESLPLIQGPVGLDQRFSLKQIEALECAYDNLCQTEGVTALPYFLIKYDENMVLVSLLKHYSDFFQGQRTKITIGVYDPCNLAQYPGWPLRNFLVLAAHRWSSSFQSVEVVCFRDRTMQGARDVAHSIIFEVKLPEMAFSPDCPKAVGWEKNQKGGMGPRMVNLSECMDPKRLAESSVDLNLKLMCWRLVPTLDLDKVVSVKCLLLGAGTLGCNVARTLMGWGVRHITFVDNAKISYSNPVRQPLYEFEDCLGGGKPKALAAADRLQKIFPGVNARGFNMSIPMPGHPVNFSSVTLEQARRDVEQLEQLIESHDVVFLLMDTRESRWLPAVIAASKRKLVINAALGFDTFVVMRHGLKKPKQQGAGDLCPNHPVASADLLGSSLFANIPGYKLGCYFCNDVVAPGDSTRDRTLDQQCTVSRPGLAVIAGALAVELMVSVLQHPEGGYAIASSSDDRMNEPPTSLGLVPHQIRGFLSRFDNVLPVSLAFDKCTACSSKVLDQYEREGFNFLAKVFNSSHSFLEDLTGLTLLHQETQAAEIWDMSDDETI
Briefly: Atg7 activating enzyme (E1) inhibition. The format is biochemical. Conditions: 25 uM compound, 60 min preincubation; read-out: Atg7 percent inhibition of adduct formation. The essentials: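 Compounds were assessed for their ability to inhibit the Atg7 activating enzyme (E1) following previously published methods and protocols. The E1 enzyme was preincubated with compound, and activity was expressed as the percent inhibition of adduct formation, reported together with the compound concentration in uM and the E1–compound preincubation time in minutes.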

A further assay deals with T2, SUMO E1 (Homo sapiens, UniProt Q9UBT2).
T2 sequence (Q9UBT2 1-640): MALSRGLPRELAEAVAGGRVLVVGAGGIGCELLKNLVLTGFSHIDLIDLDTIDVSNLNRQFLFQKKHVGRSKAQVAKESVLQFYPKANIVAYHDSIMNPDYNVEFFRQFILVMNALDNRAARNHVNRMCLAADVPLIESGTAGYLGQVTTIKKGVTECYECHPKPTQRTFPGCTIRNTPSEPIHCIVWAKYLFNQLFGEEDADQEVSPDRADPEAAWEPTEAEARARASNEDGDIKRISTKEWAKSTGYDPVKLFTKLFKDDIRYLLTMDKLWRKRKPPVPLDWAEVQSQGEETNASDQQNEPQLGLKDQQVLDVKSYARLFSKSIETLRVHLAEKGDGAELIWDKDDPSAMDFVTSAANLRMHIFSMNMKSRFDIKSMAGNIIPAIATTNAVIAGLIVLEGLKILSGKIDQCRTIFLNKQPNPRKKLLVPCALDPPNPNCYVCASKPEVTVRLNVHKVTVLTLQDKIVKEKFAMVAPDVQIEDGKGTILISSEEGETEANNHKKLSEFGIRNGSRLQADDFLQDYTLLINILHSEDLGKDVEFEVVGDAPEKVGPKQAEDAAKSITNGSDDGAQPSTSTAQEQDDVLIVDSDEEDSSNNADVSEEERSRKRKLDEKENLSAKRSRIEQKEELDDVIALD
T2 sequence (Q9UBE0 1-346 partner): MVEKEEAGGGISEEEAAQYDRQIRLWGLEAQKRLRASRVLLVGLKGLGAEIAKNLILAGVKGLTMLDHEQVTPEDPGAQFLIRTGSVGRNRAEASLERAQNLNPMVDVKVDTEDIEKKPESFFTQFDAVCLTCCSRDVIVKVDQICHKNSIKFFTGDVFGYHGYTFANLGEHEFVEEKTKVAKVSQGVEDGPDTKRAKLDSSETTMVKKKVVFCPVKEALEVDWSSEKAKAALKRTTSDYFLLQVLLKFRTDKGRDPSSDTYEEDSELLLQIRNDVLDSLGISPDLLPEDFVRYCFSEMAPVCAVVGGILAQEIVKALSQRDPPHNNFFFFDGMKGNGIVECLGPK
Briefly: SUMO E1 inhibition: UBC9-SUMO1 conjugation by SDS gel electrophoresis. The format is biochemical. The conditions noted are these: read-out: SUMO E1 percent inhibition of adduct formation; for inhibition at 9 µM: 9 uM compound; for inhibition at 25 µM: 25 uM compound; for inhibition at 3 µM: 3 uM compound, 15 min preincubation; for inhibition at 27 µM: 27 uM compound; for inhibition at 1 µM: 1 uM compound. The essentials:
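SUMO E1 was preincubated with compound for a set time, then UBC9, SUMO1 and ATP were added and incubated at 37 °C. After Laemmli quench, UBC9-SUMO1 adduct was resolved by SDS gel; percent inhibition from band intensity versus no-compound control, reported with compound concentration (μM) and preincubation time (min).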

Experimental findings from patent publication US12398151B2, “Sumo inhibitor compounds and uses thereof” (SUVALENT THERAPEUTICS, INC., priority 2019, dated 2025) are described below.

Molecules are shown by their SMILES. Like-named read-outs stand apart in the source and are kept apart here.

Turning to `C=CC(=O)N1Cc2cc(Cl)ccc2[C@@H](c2cccnc2)C1` [Compound 87], at Atg7, the inhibition (commonly how much of the control response was suppressed) at 25 µM was less than 1%. Further, the inhibition at 9 µM on SUMO E1 (30 min preincubation) is less than 1%.

Consider `C=CC(=O)N1Cc2cc(Br)cnc2[C@@H](c2ccccc2)C1` [Compound 88], for which, on Atg7, the inhibition at 25 µM is less than 1%. Besides, at SUMO E1 (30 min preincubation), the inhibition at 9 µM is less than 1%.

For the molecule `C=CC(=O)N1Cc2sc(C)cc2[C@@H](c2ccccc2C)C1` [Compound 89], the inhibition at 25 µM at Atg7 was less than 1%. Besides, the inhibition at 9 µM on SUMO E1 (30 min preincubation) was found to be 95%.

`Cc1ccccc1[C@H]1CN(C(=O)/C=C/c2ccccc2)Cc2sc(Br)cc21` [Compound 90]: the inhibition at 25 µM on Atg7 and at SUMO E1 (60 min preincubation) was less than 1% each time.

Consider `Cc1cc2c(s1)CN(C(=O)/C=C/c1ccccc1)C[C@@H]2c1ccccc1` [Compound 91], for which the inhibition at 25 µM on Atg7 was less than 1%. Further, on SUMO E1 (30 min preincubation), the inhibition at 9 µM was less than 1%.

`C=CC(=O)N1Cc2cc(Cl)ccc2[C@@H](c2ccncc2)C1` [Compound 92]: on Atg7, the inhibition at 25 µM was less than 1%. Moreover, on SUMO E1 (20 uM compound, 60 min preincubation), the inhibition at 20 µM turned out to be 10%.

Take `C#CC(=O)N1Cc2sc(Cl)cc2[C@@H](c2ccccc2C)C1` [Compound 93]: the inhibition at 25 µM at Atg7 was found to be 100%. For the same molecule, the inhibition at 9 µM at SUMO E1 (30 min preincubation) turned out to be 95%.

Take `C=CC(=O)N1Cc2cc(Cl)ccc2[C@@H](c2ccc[nH]c2=O)C1` [Compound 94]: the inhibition at 25 µM at Atg7 is less than 1%. Further, the inhibition at 9 µM at SUMO E1 (30 min preincubation) is less than 1%.

Take `Cc1cc2c(s1)CN(C(=O)CC#N)C[C@@H]2c1ccccc1` [Compound 95]: the inhibition at 25 µM at Atg7 was less than 1%. In addition, on SUMO E1 (30 min preincubation), the inhibition at 9 µM is less than 1%.

Regarding `CCS(=O)(=O)N1Cc2sc(Cl)cc2[C@@H](c2ccccc2C)C1` [Compound 96], at Atg7, the inhibition at 25 µM was found to be 90%. Besides, the inhibition at 9 µM on SUMO E1 (30 min preincubation) was less than 1%.

Consider `C/C=C/C(=O)N1Cc2sc(Cl)cc2[C@@H](c2ccccc2C)C1` [Compound 97], for which the inhibition at 25 µM on Atg7 is less than 1%. Besides, the inhibition at 9 µM at SUMO E1 (30 min preincubation) was less than 1%.

In the case of `C=CC(=O)N1Cc2cc(Cl)c(Cl)cc2[C@@H](c2ncccc2C)C1` [Compound 98], on Atg7, the inhibition at 25 µM was less than 1%. Also, the inhibition at 9 µM on SUMO E1 (30 min preincubation) was less than 1%.

With `Cc1ccccc1[C@H]1CN(C(=O)/C=C/CN(C)C)Cc2sc(Cl)cc21` [Compound 99], the inhibition at 25 µM on Atg7 is less than 1%. For the same molecule, on SUMO E1 (20 min preincubation), the inhibition at 9 µM is less than 1%.

Regarding `C=CC(=O)N1Cc2cc(Cl)c(Cl)cc2[C@@H](c2ccccc2)C1` [Compound 100], on Atg7, the inhibition at 25 µM is less than 1%. In addition, the inhibition at 3 µM at SUMO E1 was 30%.

Consider `C=CC(=O)N1Cc2ccc(Cl)c(Cl)c2[C@@H](c2ccccc2)C1` [Compound 101], for which, on Atg7, the inhibition at 25 µM is less than 1%. Further, at SUMO E1, the inhibition at 3 µM was 30%.

For `C=CC(=O)N1Cc2cc(Cl)ccc2[C@@H](C2CCCCC2)C1` [Compound 102], the inhibition at 25 µM at Atg7 is less than 1%. Also, on SUMO E1 (30 min preincubation), the inhibition at 9 µM worked out at 40%.

Regarding `C=CC(=O)N1Cc2sc(-c3ccccc3)cc2[C@@H](c2ccccc2)C1` [Compound 103], the inhibition at 25 µM on Atg7 is less than 1%. Besides, on SUMO E1 (30 min preincubation), the inhibition at 27 µM is less than 1%.

In the case of `C=C(F)C(=O)N1Cc2sc(Cl)cc2[C@@H](c2ccccc2C)C1` [Compound 104], the inhibition at 25 µM at Atg7 and on SUMO E1 (30 min preincubation) was less than 1% in each case.

For the molecule `Cc1ccccc1[C@H]1CN(C(=O)[C@@H]2CO2)Cc2sc(Cl)cc21` [Compound 105], the inhibition at 25 µM on Atg7 was less than 1%. At SUMO E1 (30 min preincubation), the inhibition at 27 µM was less than 1%.

Take `C=C(C)C(=O)N1Cc2sc(Cl)cc2[C@@H](c2ccccc2C)C1` [Compound 106]: the inhibition at 25 µM on Atg7 is less than 1%. Further, the inhibition at 27 µM at SUMO E1 (30 min preincubation) was less than 1%.

On to `Cc1ccccc1[C@H]1CN(C(=O)CBr)Cc2sc(Cl)cc21` [Compound 107], for which the inhibition at 25 µM at Atg7 is 100%. Besides, at SUMO E1 (30 min preincubation), the inhibition at 9 µM is 100%.

For `Cc1ccccc1[C@H]1CN(C(=O)/C=C/C(F)(F)F)Cc2sc(Cl)cc21` [Compound 108], the inhibition at 25 µM at Atg7 was less than 1%. Moreover, the inhibition at 1 µM at SUMO E1 (30 min preincubation) is 100%.

Take `C=CC(=O)N1Cc2sc(Cl)cc2[C@@H](c2ccccc2OC)C1` [Compound 109]: at Atg7, the inhibition at 25 µM is 80%. At SUMO E1 (30 min preincubation), the inhibition at 27 µM came to 30%.

In the case of `C=CC(=O)N1Cc2sc(CCC)cc2[C@@H](c2ccccc2C)C1` [Compound 110], the inhibition at 25 µM on Atg7 turned out to be 80%. Further, the inhibition at 27 µM on SUMO E1 (30 min preincubation) came out at 30%.

In the case of `C=CC(=O)N1Cc2cc(Br)sc2[C@@H](c2ccccc2C)C1` [Compound 111], the inhibition at 25 µM on Atg7 was less than 1%. For the same molecule, the inhibition at 27 µM on SUMO E1 (30 min preincubation) came out at 80%.

With `C=CC(=O)N1Cc2sc(Cl)cc2[C@@H](c2ccccc2C)[C@H]1C` [Compound 112], the inhibition at 25 µM at Atg7 was less than 1%. Moreover, at SUMO E1 (30 min preincubation), the inhibition at 27 µM was 95%.

In the case of `C=CC(=O)N1Cc2sc(Cl)cc2[C@@H](c2ccccc2Br)C1` [Compound 113], the inhibition at 25 µM on Atg7 is less than 1%. At SUMO E1 (30 min preincubation), the inhibition at 1 µM is 95%.

For `C=CC(=O)N1Cc2sc(Cl)cc2[C@@H](c2ccccc2F)C1` [Compound 114], the inhibition at 25 µM at Atg7 was less than 1%. Besides, the inhibition at 1 µM on SUMO E1 (30 min preincubation) stood at 100%.

With `Cc1ccccc1[C@H]1CN(C(=O)CCl)Cc2sc(Cl)cc21` [Compound 115], the inhibition at 25 µM at Atg7 amounted to 100%. On SUMO E1 (30 min preincubation), the inhibition at 27 µM amounted to 80%.

In the case of `C=CC(=O)N1Cc2ccsc2[C@@H](c2ccccc2)C1` [Compound 116], the inhibition at 25 µM at Atg7 is less than 1%. Also, on SUMO E1 (30 min preincubation), the inhibition at 27 µM is less than 1%.

Take `C=CC(=O)N[C@H]1Cc2ccsc2[C@@H](c2ccccc2C)C1` [Compound 117]: the inhibition at 25 µM on Atg7 is less than 1%. For the same molecule, at SUMO E1 (30 min preincubation), the inhibition at 27 µM is less than 1%.

Turning to `Cc1ccccc1[C@H]1CN(C(=O)c2cccnc2Cl)Cc2sc(Cl)cc21` [Compound 118], the inhibition at 25 µM at Atg7 was less than 1%. In addition, on SUMO E1 (30 min preincubation), the inhibition at 27 µM is less than 1%.

With `Cc1ccccc1[C@H]1CN(C(=O)/C=C/c2ccccn2)Cc2sc(Cl)cc21` [Compound 119], at Atg7, the inhibition at 25 µM is less than 1%. The inhibition at 27 µM on SUMO E1 (30 min preincubation) was less than 1%.

Consider `O=C(/C=C/C(F)(F)F)N1Cc2sc(Cl)cc2[C@@H](c2ccccc2F)C1` [Compound 120], for which the inhibition at 25 µM at Atg7 was less than 1%. Further, the inhibition at 1 µM at SUMO E1 (30 min preincubation) was 100%.

For the molecule `Cc1ccccc1[C@H]1CN(C(=O)/C=C/c2ccc(C#N)cc2)Cc2sc(Cl)cc21` [Compound 121], the inhibition at 25 µM on Atg7 is less than 1%. The inhibition at 27 µM on SUMO E1 (30 min preincubation) was less than 1%.

As for `Cc1ccccc1[C@H]1CN(C(=O)/C=C/C(F)F)Cc2sc(Cl)cc21` [Compound 122], the inhibition at 25 µM at Atg7 was less than 1%. For the same molecule, the inhibition at 1 µM at SUMO E1 (30 min preincubation) was determined as 100%.

For `C=CC(=O)N1Cc2sccc2[C@@H](C2CCCCC2)C1` [Compound 123], the inhibition at 25 µM on Atg7 is less than 1%. Further, the inhibition at 9 µM on SUMO E1 (30 min preincubation) was found to be 40%.
